US6410790B1, “3-amin3-arylpropan-1-ol compounds, their preparation and use” (priority 1999, dated 2002)

Experiments:
[1] = system: phenylquinone-induced writhing reaction; test: phenylquinone-induced writhing test in mice; assay type: in vivo; settings: male NMRI mice, phenylquinone i.p. 10 minutes later; for inhibition in vivo at 10 mg/kg: Mus musculus, iv, 10 min, 10 mg/kg intravenously
Procedure, shortened: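 Male NMRI mice (25–30 g, n=10/group) received test substance i.v. at 10 mg/kg, then 0.02% phenylquinone i.p. 10 min later. Writhing reactions were counted 5–20 min after phenylquinone; % inhibition is relative to saline-treated controls.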

[2] = molecular target: T1, NA transporter (Rattus norvegicus, UniProt Q63380); test: synaptosomal noradrenaline uptake inhibition (NA uptake inhibition); assay type: biochemical; settings: for inhibition at 1 µM: read-out: NA Uptake Inhibition at 1 μM, 1 μM in the assay, synaptosomes from rat hypothalamus; for NA Uptake Inhibition at 1 μM: 1 μM in the assay, synaptosomes from rat hypothalamus
T1 construct: synaptosomes are isolated fresh from rat brains; from tissue; host or cells: rat hypothalamus synaptosomes (P2 fraction)
Procedure, shortened: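 IC50 values converted to Ki via Cheng-Prusoff; Km by Lineweaver-Burk. N=4 independent series, each in triplicate, mean ± SEM.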

[3] = system: phenylalkylamine binding site of the L-type calcium channel; test: Verapamil binding, L calcium channel; settings: for Verapamil Binding at 10 μM: percentage inhibition, N-methyl-[3H]-verapamil 2 nM
Method: Binding Investigations in the L Calcium Channel
Phenylalkylamine Binding Site (Verapamil Binding)
The biological material (ion channel particles) was prepared on the basis of the publication of Reynolds, Gould and Snyder (I. J. Reynolds, R. J. Gould and S. H. Snyder (1983) […]. 95, 319-321).
N-methyl-[^3H]-verapamil (2 nM in the assay) was used as radioligand. The radioactivity that is measured in the presence of non-radioactive verapamil (10^−4 M in the assay) is defined as non-specific binding. The material was incubated at 25° C. for 45 minutes. The material was then filtered using a Whatman GF/B filter, followed by washing. The radioactivity remaining on the filter (ion channel binding) was measured using a β-counter.
For this purpose IC50 values are obtained, which can be converted to inhibitor constants (Ki) according to the “Cheng-Prusoff equation” (Y. C. Clieng and W. H. Prusoff (1973) Biochem. Pharmacol. 22, 3099-3108). The IC50 values were obtained by means of the computer program “Figure P” (version 6.0, Biosoft, Cambridge, England). Km values were calculated according to Lineweaver and Burk (H. Lineweaver and D. Burk (1934) J. Am. Chem. Soc. 56, 658-666). The “Ligand” computer program (version 4, Biosoft, England) was used to obtain Ken values.

[4] = system: benzothiazepine binding site of the L-type calcium channel; test: Diltiazem binding, L calcium channel; design: species or system rat; settings: 10 μM, percentage inhibition, [3H]-cis-(+)-diltiazem 5 nM, rat cerebral cortex membranes
Procedure, shortened: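 Rat cerebral cortex membranes incubated with [^3H]-cis-(+)-diltiazem (5 nM) for 20 min at 25° C; nonspecific binding defined with (±)-diltiazem (10^−6 M). Bound ligand collected by GF/B filtration and counted; IC50 values converted to Ki by Cheng-Prusoff.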

[5] = system: binding site 2 of the sodium channel; test: BTX binding, sodium channel; settings: 10 μM, percentage inhibition, [3H]-batrachotoxin A20 α-benzoate 10 nM, rat cerebral cortex synaptosomes
Procedure, shortened: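 Rat cerebral cortex synaptosomes incubated with 10 nM [^3H]-batrachotoxin A20 α-benzoate at 37° C for 120 min; non-specific binding defined with 0.3 mM veratridine. IC50 values converted to Ki via Cheng-Prusoff; means±SEM of 3 independent series run in triplicate.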

T1 sequence (Q63380 1-617): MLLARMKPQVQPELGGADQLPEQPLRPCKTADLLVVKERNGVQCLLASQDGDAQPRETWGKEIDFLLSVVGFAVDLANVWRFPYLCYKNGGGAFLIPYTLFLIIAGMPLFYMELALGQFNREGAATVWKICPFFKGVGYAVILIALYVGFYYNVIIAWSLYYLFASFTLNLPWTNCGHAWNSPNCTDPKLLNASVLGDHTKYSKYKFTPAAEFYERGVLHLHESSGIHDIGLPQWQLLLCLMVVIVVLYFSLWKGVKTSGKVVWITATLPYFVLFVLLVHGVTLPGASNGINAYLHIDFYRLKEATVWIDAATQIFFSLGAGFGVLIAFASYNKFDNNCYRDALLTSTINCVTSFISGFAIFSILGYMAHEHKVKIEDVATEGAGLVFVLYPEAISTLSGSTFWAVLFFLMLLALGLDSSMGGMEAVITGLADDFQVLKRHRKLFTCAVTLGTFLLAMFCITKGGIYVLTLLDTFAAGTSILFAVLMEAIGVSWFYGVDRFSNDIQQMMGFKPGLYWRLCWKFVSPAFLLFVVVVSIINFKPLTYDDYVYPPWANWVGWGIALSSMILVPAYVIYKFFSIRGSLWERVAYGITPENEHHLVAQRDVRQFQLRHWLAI

COc1cccc(CC2(O)CCCCC2C(c2ccc(C(F)(F)F)cc2)N(C)C)c1.Cl (stereo not shown) [Example 22, 2-[dimethylamino-(4-trifluoromethylphenyl)methyl]-1-(3-methoxybenzyl)cyclohexanol, hydrochloride]
inhibition in vivo at 10 mg/kg [1]: 68%
inhibition at 1 µM [2]: 91%
Verapamil Binding at 10 μM [3]: 80%
Diltiazem Binding at 10 μM [4]: 72%
BTX Binding at 10 μM [5]: 98%

CN(C)C(c1ccccc1)C1CCCCC1(O)Cc1ccccc1.Cl (stereo not shown) [Example 14, 1-benzyl-2-(dimethylaminophenylmethyl)cyclohexanol, hydrochloride]
inhibition in vivo at 10 mg/kg [1]: 70%
inhibition at 1 µM [2]: 100%
Diltiazem Binding at 10 μM [4]: 88%
BTX Binding at 10 μM [5]: 89%
melting point: 223 to 225 °C

COc1cccc(C2(O)CCCCC2C(c2ccccc2)N(C)C)c1.Cl (stereo not shown) [Example 1, 2-(dimethlylaminophenylmethyl)-1-(3-methoxyphenyl)cyclohexanol, hydrochloride]
% Inhibition of the writhing reaction at 10 mg/kg intravenously [1]: 85%
NA Uptake Inhibition at 1 μM [2]: 41%
Verapamil Binding at 10 μM [3]: 76%
Diltiazem Binding at 10 μM [4]: 65%
BTX Binding at 10 μM [5]: 77%

CN(C)C(c1ccccc1)C1CCCCC1(O)c1ccc(Cl)c(Cl)c1 (stereo not shown) [Example 19, 1-(3,4-dichlorophenyl)-2-(dimethylaminophenylmethyl)-cyclohexanol]
NA Uptake Inhibition at 1 μM [2]: 50%
Verapamil Binding at 10 μM [3]: 81%
BTX Binding at 10 μM [5]: 97%

CN(C)C(c1ccccc1)C1CCCCC1(O)c1ccc2ccccc2c1.Cl (stereo not shown) [Example 21, 2-(dimethylaminophenylmethyl)-1-naphthalene-2-ylcyclohexanol, hydrochloride]
inhibition in vivo at 10 mg/kg [1]: 97%
inhibition at 1 µM [2]: 17%
Verapamil Binding at 10 μM [3]: 71%
Diltiazem Binding at 10 μM [4]: 85%
BTX Binding at 10 μM [5]: 94%

CCCCC1(O)CCCCC1C(c1ccccc1)N(C)C.Cl (stereo not shown) [Example 18, 1-butyl-2-(dimethylaminophenylmethyl)cyclohexanol, hydrochloride]
inhibition in vivo at 10 mg/kg [1]: 100%
inhibition at 1 µM [2]: 84%
Verapamil Binding at 10 μM [3]: 75%
Diltiazem Binding at 10 μM [4]: 81%
BTX Binding at 10 μM [5]: 95%

CN(C)C(c1ccccc1)C1CCCCC1(O)c1ccc(Cl)c(Cl)c1.Cl (single isomer, unassigned; (+)) [+19, (+)-1-(3,4-dichlorophenyl)-2-(dimethylaminophenylmethyl)cyclohexanol, hydrochloride]
inhibition in vivo at 10 mg/kg [1]: 74%
NA Uptake Inhibition at 1 μM ([2]; hydrochloride): 62%
Verapamil Binding at 10 μM ([3]; hydrochloride): 82%
Diltiazem Binding at 10 μM [4]: 85%
BTX Binding at 10 μM ([5]; hydrochloride): 92%

CN(C)C(c1ccccc1)C1CCCCC1(O)c1cccc2c1OCO2.Cl (stereo not shown) [Example 11, 1-benzo[1,3]dioxol-4-yl-2-(dimethylaminophenylmethyl)cyclohexanol, hydrochloride]
inhibition in vivo at 10 mg/kg [1]: 99%
inhibition at 1 µM [2]: 54%
Verapamil Binding at 10 μM [3]: 61%
Diltiazem Binding at 10 μM [4]: 85%
BTX Binding at 10 μM [5]: 79%

COc1ccc(C2(O)CCCCC2C(c2ccccc2)N(C)C)cc1.Cl (stereo not shown) [Example 5, 2-(dimethylaminophenylmethyl)-1-(4-methoxyphenyl)cyclohexanol, hydrochloride]
inhibition in vivo at 10 mg/kg [1]: 100%
inhibition at 1 µM [2]: 70%
Verapamil Binding at 10 μM [3]: 56%
Diltiazem Binding at 10 μM [4]: 54%
BTX Binding at 10 μM [5]: 97%

CN(C)C(c1ccccc1)C1CCCCC1(O)c1cccc(O)c1.Cl (stereo not shown) [Example 4]
% Inhibition of the writhing reaction at 10 mg/kg intravenously [1]: 75%
NA Uptake Inhibition at 1 μM [2]: 49%
Verapamil Binding at 10 μM [3]: 57%
Diltiazem Binding at 10 μM [4]: 46%
BTX Binding at 10 μM [5]: 70%

CN(C)C(c1ccccc1)C1CCCCC1(O)c1ccc(F)cc1.Cl (stereo not shown) [Example 7, 2-(dimethylaminophenylmethyl)-1-(4-fluorophenyl)cyclohexanol, hydrochloride]
inhibition in vivo at 10 mg/kg [1]: 85%
inhibition at 1 µM [2]: 38%
Verapamil Binding at 10 μM [3]: 56%
Diltiazem Binding at 10 μM [4]: 78%
BTX Binding at 10 μM [5]: 86%

CN(C)C(c1ccccc1)C1CCCCC1(O)c1ccccc1.Cl (stereo not shown) [Example 3, 2-(dimethylaminophenylmethyl)-1-phenylcyclohexanol, hydrochloride]
inhibition in vivo at 10 mg/kg [1]: 83%
inhibition at 1 µM [2]: 41%
Verapamil Binding at 10 μM [3]: 68%
Diltiazem Binding at 10 μM [4]: 50%
BTX Binding at 10 μM [5]: 78%

CN(C)C(c1ccccc1)C1CCCCC1(O)c1ccc(Cl)cc1.Cl (stereo not shown) [Example 6, 1-(4-chlorophenyl)-2-(dimethylaminophenylmethyl)cyclohexanol, hydrochloride]
inhibition in vivo at 10 mg/kg [1]: 83%
inhibition at 1 µM [2]: 51%
Verapamil Binding at 10 μM [3]: 60%
Diltiazem Binding at 10 μM [4]: 96%
BTX Binding at 10 μM [5]: 90%

CN(C)C(c1ccccc1)C1CCCCC1(O)c1ccoc1.Cl (stereo not shown) [Example 17, 2-(dimethylaminophenylmethyl)-1-furan-3-ylcyclohexanol, hydrochloride]
inhibition in vivo at 10 mg/kg [1]: 100%
inhibition at 1 µM [2]: 57%
Verapamil Binding at 10 μM [3]: 72%
Diltiazem Binding at 10 μM [4]: 54%
BTX Binding at 10 μM [5]: 70%

CN(C)c1ccc(C2(O)CCCCC2C(c2ccccc2)N(C)C)cc1.Cl (stereo not shown) [Example 10, 1-(4-dimethylaminophenyl)-2-[dimethylaminophenylmethyl]cyclohexanol, hydrochloride]
inhibition in vivo at 10 mg/kg [1]: 97%
inhibition at 1 µM [2]: 48%
Verapamil Binding at 10 μM [3]: 61%
Diltiazem Binding at 10 μM [4]: 69%
BTX Binding at 10 μM [5]: 88%

CN(C)C(c1ccccc1)C1CCCCC1(O)Cc1ccc(OC(F)(F)F)cc1.Cl (stereo not shown) [Example 16, 2-(dimethylaminophenylmethyl)-1-(4-trifluoromethoxybenzyl)cyclohexanol, hydrochloride]
inhibition in vivo at 10 mg/kg [1]: 75%
inhibition at 1 µM [2]: 89%
Verapamil Binding at 10 μM [3]: 91%
Diltiazem Binding at 10 μM [4]: 100%
BTX Binding at 10 μM [5]: 98%

CN(C)C(c1ccccc1)C1CCCCC1(O)c1cccc(F)c1.Cl (stereo not shown) [Example 2, 2-(dimethylaminophenylmethyl)-1-(3-fluorophenyl)cyclohexaniol, hydrochloride]
% Inhibition of the writhing reaction at 10 mg/kg intravenously [1]: 88%
NA Uptake Inhibition at 1 μM [2]: 52%
Verapamil Binding at 10 μM [3]: 76%
Diltiazem Binding at 10 μM [4]: 52%
BTX Binding at 10 μM [5]: 80%

COc1ccc(CC2(O)CCCCC2C(c2ccccc2)N(C)C)cc1.Cl (stereo not shown) [Example 49, 2-(dimethylaminophenylmethyl)-1-(4-methoxybenzyl)cyclohexanol, hydrochloride]
inhibition in vivo at 10 mg/kg [1]: 100%
inhibition at 1 µM [2]: 100%
Diltiazem Binding at 10 μM [4]: 93%
BTX Binding at 10 μM [5]: 90%

CN(C)C(c1ccccc1)C1CCCCC1(O)c1ccc(O)cc1.Cl (stereo not shown) [Example 20, 4-[2-(dimethylaminophenylmethyl)-1-hydroxycyclohexyl]phenol, hydrochloride]
inhibition in vivo at 10 mg/kg [1]: 96%
inhibition at 1 µM [2]: 68%
Diltiazem Binding at 10 μM [4]: 69%
BTX Binding at 10 μM [5]: 68%

CN(C)C(c1ccccc1)C1CCCCC1(O)c1ccc(Cl)c(Cl)c1.Cl (single isomer, unassigned; (-)) [−19, (−)-1(3,4-dichlorophenyl)-2-(dimethylaminophenylmethyl)cyclohexanol, hydrochloride]
% Inhibition of the writhing reaction at 10 mg/kg intravenously ([1]; hydrochloride, 10 mg/kg): 88%
NA Uptake Inhibition at 1 μM ([2]; hydrochloride): 36%
Verapamil Binding at 10 μM ([3]; hydrochloride): 83%
Diltiazem Binding at 10 μM [4]: 85%
BTX Binding at 10 μM ([5]; hydrochloride): 96%

COc1ccc(CCN(C)CCCC(C#N)(c2ccc(OC)c(OC)c2)C(C)C)cc1OC (stereo not shown) [N-methyl-[^3H]-verapamil, reference compound]
Kd ([3]; radioligand, N=2, read-out: KD value for this binding site): 139 nM
